According to paper PMC7520961, “Safety evaluation of the interchangeable use of robenacoxib in commercially-available tablets and solution for injection in cats” (BMC Veterinary Research, 2020):

Test system: cats
Experiment: Hematology, coagulation and urinalysis (target animal safety study)
Assay type: in vivo, cat
Settings: for Absolute Punctate Reticulocyte (mean ± SD) / Basophils (mean ± SD) / Other Cells (mean ± SD) / Monocytes (mean ± SD) / Eosinophils (mean ± SD) / Neutrophils (mean ± SD) / Lymphocytes (mean ± SD) / Erythrocytes (mean ± SD) / Leukocytes (mean ± SD) / Hemoglobin (mean ± SD) / Prothrombin Time (mean ± SD) / APTT (mean ± SD) / MCH (mean ± SD) / Absolute Aggregate Reticulocyte (mean ± SD) / Hematocrit (mean ± SD) / MCHC (mean ± SD) / MCV (mean ± SD) / Platelets (mean ± SD) / Fibrinogen (mean ± SD): post-treatment, average of days 13 and 37; for Basophils (mean ± SD): reference range 0 - 0.03; for Other Cells (mean ± SD): reference range 0 - 0.05; for Monocytes (mean ± SD): reference range 0 - 0.81; for Eosinophils (mean ± SD): reference range 0 - 1.31, significant treatment x sex effect (p<0.1); for Neutrophils (mean ± SD): reference range 0 - 12.65; for Lymphocytes (mean ± SD): reference range 2.18 - 13.48; for Erythrocytes (mean ± SD): reference range 5.36 - 10.78; for Leukocytes (mean ± SD): reference range 6.3 - 27.2; for Hemoglobin (mean ± SD): reference range 7.5 - 14.4; for Prothrombin Time (mean ± SD): reference range 8.7 - 11; for APTT (mean ± SD): reference range 11.2 - 18.7; for MCH (mean ± SD): reference range 11.9 - 15.1; for Absolute Aggregate Reticulocyte (mean ± SD): reference range 12.9 - 106.6; for Hematocrit (mean ± SD): reference range 22.5 - 41.6; for MCHC (mean ± SD): reference range 30.4 - 38; for MCV (mean ± SD): reference range 34.3 - 47.5; for Platelets (mean ± SD): reference range 107 - 779; for Fibrinogen (mean ± SD): reference range 152 - 278
Experimental: Buccal mucosal bleeding times (BMBT) were measured on all animals on Days − 5 and 36 following ECG examinations while the animals were sedated. The upper lip was everted and a Surgicutt incision device was used to create a small incision (approximately 1 mm in depth and 3.5 mm in length). Blood flow from the incision site was blotted using filter paper below the incision. The elapsed time from the triggering of the device until blood no longer appeared on the filter paper was recorded as the bleed time. Clinical pathology evaluations were conducted on all animals on Days − 13 and − 6 and prior to dosing on Days 13 and 37. Because reference values given by the laboratory were (slightly) different for males and females, they were combined (i.e. lower of the two lower bounds to higher of the two upper bounds) for the tables. Animals were fasted 8–12 hours overnight prior to blood collection. Blood samples (3.0 mL) were collected from the jugular vein into tubes containing K3EDTA for evaluation of hematology parameters, sodium citrate for evaluation of coagulation parameters, and serum separators with no anticoagulant for the clinical chemistry samples. Urine samples were collected on Days […], 13, and 37 by replacing the litter in the litter box with NoSorb® (Creative Science, LLC, Ballwin, MO, USA) for at least 16 hours. Hematology variables were determined using an Advia 120 or Advia 2120 (Siemens, Munich, Germany), light microscope, or sediplast column (Polymedco, NY, US). Coagulation variables were determined using a Stago Compact (Diagnostica Stago, Parsippany, NJ, US), clinical chemistry variables were determined using an Olympus AU2700 or AU640e (Olympus Diagnostics, Southall, UK), and urinalysis variables were determined using a Clinitek-500 or Atlas (Siemens, Munich, Germany), Reichert VET 360 (Reichert Technologies, Buffalo, New York, USA), or light microscope.
Post-treatment values were analyzed using RMANCOVA, with treatment group, sex, time, and their interactions as fixed model effects and the pre-treatment value measured closest to dosing as a covariate. Repeated measurements in the same animal were modeled using a compound symmetry or heterogeneous compound symmetry correlation structure (for food consumption: autoregressive first-order or heterogeneous autoregressive first-order); the model with the smallest Akaike’s Information Criterion was selected for each outcome.
If any of the interactions involving treatment was significant (p < 0.1 for the two-factor interactions or p < 0.05 for the three-factor interaction), it was inappropriate to evaluate the main or overall treatment effect independently of the interacting factor and, as such, treatment comparisons were conducted for each level of the interacting factor. If none of the interactions involving treatment were significant, overall treatment differences were assessed.

[1] = 1X (oral ≥2.4, SC 2.0 mg/kg/day)
[2] = 2X (oral ≥4.8, SC 4.0 mg/kg/day)
[3] = 3X (oral ≥7.2, SC 6.0 mg/kg/day)

CCc1ccc(Nc2c(F)c(F)cc(F)c2F)c(CC(=O)O)c1 [robenacoxib]
Absolute Punctate Reticulocyte (mean ± SD) [1]: 2277 ± 658 10^3/µL | Basophils (mean ± SD) [1]: 0.006 ± 0.011 10^3/µL | Other Cells (mean ± SD) [1]: 0.62 ± 0.95 10^3/µL | Monocytes (mean ± SD) [1]: 0.27 ± 0.22 10^3/µL | Eosinophils (mean ± SD) [1]: 1.08 ± 0.40 10^3/µL | Neutrophils (mean ± SD) [1]: 5.28 ± 1.75 10^3/µL | Lymphocytes (mean ± SD) [1]: 6.69 ± 2.61 10^3/µL | Erythrocytes (mean ± SD) [1]: 7.24 ± 0.88 10^6/µL | Leukocytes (mean ± SD) [1]: 13.95 ± 4.43 10^3/µL | Hemoglobin (mean ± SD) [1]: 9.96 ± 0.98 g/dL | Prothrombin Time (mean ± SD) [1]: 11.03 ± 0.62 s | APTT (mean ± SD) [1]: 23.35 ± 16.35 s | MCH (mean ± SD) [1]: 13.82 ± 0.81 pg | Absolute Aggregate Reticulocyte (mean ± SD) [1]: 4.02 ± 4.81 10^3/µL | Hematocrit (mean ± SD) [1]: 30.66 ± 3.36% | MCHC (mean ± SD) [1]: 32.53 ± 0.55 g/dL | MCV (mean ± SD) [1]: 42.49 ± 2.78 fL | Platelets (mean ± SD) [1]: 253.7 ± 157.1 10^3/µL | Fibrinogen (mean ± SD) [1]: 180.8 ± 37.0 mg/dL | Absolute Punctate Reticulocyte (mean ± SD) [2]: 1915 ± 702 10^3/µL | Basophils (mean ± SD) [2]: 0.010 ± 0.011 10^3/µL | Other Cells (mean ± SD) [2]: 0.30 ± 0.71 10^3/µL | Monocytes (mean ± SD) [2]: 0.28 ± 0.14 10^3/µL | Eosinophils (mean ± SD) [2]: 0.94 ± 0.52 10^3/µL | Neutrophils (mean ± SD) [2]: 5.73 ± 1.34 10^3/µL | Lymphocytes (mean ± SD) [2]: 6.16 ± 1.81 10^3/µL | Erythrocytes (mean ± SD) [2]: 7.58 ± 0.82 10^6/µL | Leukocytes (mean ± SD) [2]: 13.43 ± 3.10 10^3/µL | Hemoglobin (mean ± SD) [2]: 9.99 ± 1.06 g/dL | Prothrombin Time (mean ± SD) [2]: 10.77 ± 0.56 s | APTT (mean ± SD) [2]: 16.68 ± 2.52 s | MCH (mean ± SD) [2]: 13.21 ± 0.99 pg | Absolute Aggregate Reticulocyte (mean ± SD) [2]: 1.38 ± 4.14 10^3/µL | Hematocrit (mean ± SD) [2]: 30.17 ± 3.65% | MCHC (mean ± SD) [2]: 33.14 ± 0.65 g/dL | MCV (mean ± SD) [2]: 39.86 ± 3.11 fL | Platelets (mean ± SD) [2]: 334.7 ± 155.9 10^3/µL | Fibrinogen (mean ± SD) [2]: 180.3 ± 22.2 mg/dL | Absolute Punctate Reticulocyte (mean ± SD) [3]: 2129 ± 555 10^3/µL | Basophils (mean ± SD) [3]: 0.006 ± 0.007 10^3/µL | Other Cells (mean ± SD) [3]: 0.44 ± 0.92 10^3/µL | Monocytes (mean ± SD) [3]: 0.26 ± 0.15 10^3/µL | Eosinophils (mean ± SD) [3]: 1.10 ± 0.40 10^3/µL | Neutrophils (mean ± SD) [3]: 5.46 ± 1.04 10^3/µL | Lymphocytes (mean ± SD) [3]: 7.50 ± 2.64 10^3/µL | Erythrocytes (mean ± SD) [3]: 7.73 ± 0.88 10^6/µL | Leukocytes (mean ± SD) [3]: 14.76 ± 3.66 10^3/µL | Hemoglobin (mean ± SD) [3]: 10.13 ± 1.15 g/dL | Prothrombin Time (mean ± SD) [3]: 10.84 ± 0.46 s | APTT (mean ± SD) [3]: 16.83 ± 2.52 s | MCH (mean ± SD) [3]: 13.11 ± 0.65 pg | Absolute Aggregate Reticulocyte (mean ± SD) [3]: 1.45 ± 4.17 10^3/µL | Hematocrit (mean ± SD) [3]: 30.90 ± 3.81% | MCHC (mean ± SD) [3]: 32.80 ± 1.57 g/dL | MCV (mean ± SD) [3]: 40.03 ± 2.65 fL | Platelets (mean ± SD) [3]: 301.4 ± 173.8 10^3/µL | Fibrinogen (mean ± SD) [3]: 172.5 ± 16.3 mg/dL | coagulation or urinalysis values between groups (all groups during the study): no significant differences
